The values below come from ChEMBL document CHEMBL5532639, “Heterocyclic pyrimidine derivatives as promising antibacterial agents” (Eur J Med Chem, 2023).

Each structure is given as a SMILES string. Converted amounts (≈) assume the structure as drawn.

For test [1], the system named is Bacillus subtilis. The experiment in a line: Antimicrobial activity against Bacillus subtilis RCMB 010069 assessed as bacterial growth inhibition by measuring zone of inhibition at 50 ug/ml by agar cup diffusion assay. Format: functional. Particulars: read-out: IZ.
For test [2], the system named is Escherichia coli. The test can be described thus: Antimicrobial activity against Escherichia coli RCMB 010052 assessed as bacterial growth inhibition by measuring zone of inhibition at 50 ug/ml by agar cup diffusion assay. Format: functional. Particulars: read-out: IZ.
For test [3], the system named is Streptococcus pneumoniae. The experiment in a line: Antimicrobial activity against Streptococcus […] assessed as bacterial growth inhibition by measuring zone of inhibition at 50 ug/ml by agar cup diffusion assay. Format: functional. Particulars: read-out: IZ.
In test [4] the test system is Staphylococcus aureus. The experiment in a line: Antibacterial activity against Staphylococcus aureus ATCC 3750 assessed as reduction in bacterial growth. Format: functional.
In test [5] the test system is Bacillus subtilis. The test can be described thus: Antibacterial activity against Bacillus subtilis 6633 assessed as reduction in bacterial growth. Format: functional.
For test [6], the system named is Salmonella typhimurium. The test can be described thus: Antibacterial activity against Salmonella typhimurium DT104 assessed as reduction in bacterial growth. Format: functional, Salmonella enterica subsp. enterica serovar Typhimurium. Particulars: Salmonella enterica.
The test system of test [7] is Escherichia coli. The experiment in a line: Antibacterial activity against Escherichia coli ATCC 25922 assessed as bacterial growth inhibition. Format: functional.
Test [8] has as its system Staphylococcus aureus. The test can be described thus: Antibacterial activity against Staphylococcus aureus assessed as bacterial growth inhibition by measuring zone of inhibition at 50 ug/ml by agar cup diffusion assay. Format: functional. The settings on record: read-out: IZ.
Test [9] has as its system Escherichia coli. The experiment in a line: Antibacterial activity against Escherichia coli assessed as bacterial growth inhibition by measuring zone of inhibition at 50 ug/ml by agar cup diffusion assay. Format: functional. The settings on record: read-out: IZ.
Test [10] relates to Staphylococcus aureus. The test can be described thus: microbe, parasite or virus in culture. Particulars: ATCC 25923, 24 h.
Description: Antibacterial activity against Staphylococcus aureus ATCC 25923 assessed as reduction in bacterial growth measured after 24 hrs by Mueller-Hinton broth assay
For test [11], the system named is Bacillus subtilis. The test can be described thus: Antibacterial activity against Bacillus subtilis ATCC 465 assessed as reduction in bacterial growth measured after 24 hrs by Mueller-Hinton broth assay. Format: functional.
Test [12] has as its system Staphylococcus aureus. The experiment in a line: Antibacterial activity against Staphylococcus aureus assessed as reduction in microbial growth by measuring zone of inhibition. Format: functional.
Test [13] deals with Escherichia coli. The experiment in a line: Antibacterial activity against Escherichia coli assessed as reduction in microbial growth by measuring zone of inhibition. Format: functional.
Test [14] relates to Pseudomonas aeruginosa. The experiment in a line: Antibacterial activity against Pseudomonas aeruginosa assessed as reduction in microbial growth by measuring zone of inhibition. Format: functional.
Test [15] deals with Bacillus subtilis. The experiment in a line: Antibacterial activity against Bacillus subtilis assessed as reduction in microbial growth by measuring zone of inhibition. Format: functional.
In test [16] the test system is Escherichia coli. The test can be described thus: Antibacterial activity against Escherichia coli assessed as inhibition of microbial growth by broth micro-dilution method. Format: functional. A general note: Broth dilution looks for growth in wells or tubes with falling amounts of substance.
The subject of test [17] is Streptococcus pyogenes. The experiment in a line: Antibacterial activity against Streptococcus pyogenes assessed as inhibition of microbial growth by broth micro-dilution method. Format: functional.
The subject of test [18] is Staphylococcus aureus. The experiment in a line: Antibacterial activity against Staphylococcus aureus assessed as inhibition of microbial growth by broth micro-dilution method. Format: functional.
Test [19] relates to Pseudomonas aeruginosa. The test can be described thus: Antibacterial activity against Pseudomonas aeruginosa assessed as inhibition of microbial growth by broth micro-dilution method. Format: functional.
Test [20] has as its system Sarcina. The experiment in a line: Antibacterial activity against Sarcina assessed as zone of inhibition at 20 mg/ml. Format: functional. Particulars: read-out: IZ.
Test [21] deals with Staphylococcus aureus. The test can be described thus: Antibacterial activity against Staphylococcus aureus assessed as zone of inhibition at 20 mg/ml. Format: functional. Particulars: read-out: IZ.
For test [22], the system named is Escherichia coli. The test can be described thus: Antibacterial activity against Escherichia coli assessed as zone of inhibition at 20 mg/ml. The settings on record: read-out: IZ. Format: functional.
In test [23] the test system is Bacillus subtilis. The experiment in a line: Antibacterial activity against Bacillus subtilis assessed as zone of inhibition at 20 mg/ml. Particulars: read-out: IZ. Format: functional.
Test [24] has as its system Serratia marcescens. The experiment in a line: Antibacterial activity against Serratia marcescens assessed as zone of inhibition at 20 microg/ml. Format: functional. Particulars: read-out: IZ.

In the case of `O=C1OC(c2ccc(C(=O)O)cc2)N=C1/C=C/c1ccc(C(=O)c2ccc(Cl)cc2)cc1` (centres undefined), the zone of inhibition at 50 µg/mL is 24.3 mm in test [1], 18.2 mm in test [2] and 21.8 mm in test [3].

In the case of `Cc1nc2scc(-c3ccco3)c2c(=O)n1/N=C/c1ccc(F)cc1F`, the MIC in test [4] was 5 µg/mL (≈ 13.5 µM); in test [5], 4 µg/mL (≈ 10.8 µM); in test [6] it was 6 µg/mL (≈ 16.2 µM); in [7] it was 5 µg/mL (≈ 13.5 µM).

Consider `O=C(CSc1nnc(-c2cccnc2N2CCOCC2)o1)Nc1nc(-c2ccc(F)cc2)cc(-c2cc(F)c(Cl)cc2Cl)n1`, for which the zone of inhibition at 50 µg/mL in [8] and in test [9] was 11 mm in each case.

Consider `N#Cc1nc2[nH]c(=O)[nH]c(=O)c2c(-c2c(Cl)cccc2Cl)c1N`, for which the MIC in [10] stood at 64 µg/mL (≈ 184 µM); in test [11] it was 4 µg/mL (≈ 11.5 µM).

Consider `COc1cc(-c2cc(-c3cc(F)c(Cl)cc3Cl)nc(NC(=O)CSc3nnc(-c4cccnc4N4CCOCC4)o3)n2)cc(OC)c1OC`, for which the zone of inhibition at 50 µg/mL worked out at 9 mm in test [8] and 14 mm in test [9].

In the case of `COc1ccc(-c2c(C(=O)c3ccc(C(=O)O)cc3)c(N)nc3nc4ccccc4n23)cc1`, the zone of inhibition at 50 µg/mL came to 24.7 mm in test [1], 17.9 mm in test [2] and 19.3 mm in test [3].

With `Nc1nc2ncnn2c(-c2ccc(Br)cc2)c1C(=O)c1ccc(C(=O)O)cc1`, the zone of inhibition at 50 µg/mL in test [1] worked out at 28.9 mm; in [2], 18.3 mm; in test [3], 21.3 mm.

Regarding `Cc1nc2scc(-c3ccco3)c2c(=O)n1NC(=O)c1ccc([N+](=O)[O-])cc1`, the MIC in [4] worked out at 6 µg/mL (≈ 15.1 µM); in test [5] it was 5 µg/mL (≈ 12.6 µM); in test [6] it was 5 µg/mL (≈ 12.6 µM); in test [7], 7 µg/mL (≈ 17.7 µM).

Regarding `Ic1cnc(SCc2ccccc2)nc1N/N=C/c1c(-c2ccccc2)c(-c2ccccc2)nn1-c1ccccc1`, the “inhibition zone (IZ)” value was determined as 18 mm in test [12], 10 mm in [13], 16 mm in [14] and 20 mm in [15].

For `Cc1ccc(-c2c(C(=O)c3ccc(C(=O)O)cc3)c(N)nc3ncnn23)cc1`, the zone of inhibition at 50 µg/mL in test [1] was 26.8 mm; in test [2], 16.6 mm; in test [3], 20.7 mm.

Consider `COc1ccc(-c2cc(-c3ccc(Oc4ccccc4)cc3)nc(SCC(=O)Nc3nc4ccc(S(=O)(=O)O)cc4s3)n2)cc1`, for which the MIC in test [16] is 62.5 µg/mL; in test [17] it was 100 µg/mL; in [18] it was 100 µg/mL; in test [19] it was 50 µg/mL.

Regarding `Cc1nc2scc(-c3ccco3)c2c(=O)n1/N=C/c1ccc(Cl)cc1Cl`, the MIC in test [4] came to 4 µg/mL (≈ 9.89 µM); in test [5] it was 4 µg/mL (≈ 9.89 µM); in [6] it was 5 µg/mL (≈ 12.4 µM); in [7], 6 µg/mL (≈ 14.8 µM).

On to `CSc1c(C#N)c(N)nc2c(/N=N/c3ccc(S(=O)(=O)Nc4ncc(C)cn4)cc3)c(=O)[nH]n12`, for which the zone of inhibition at 20000 µg/mL in test [20] was 12 mm; in test [21], 9 mm; in test [22], 12 mm; in [23], 9 mm. Further, the zone of inhibition at 20 µg/mL in test [24] was 15 mm.

In the case of `CCn1cc(C(=O)O)c(=O)c2cc(F)c(N3CCNCC3)cc21` [NORFLOXACIN], the MIC in test [16], in test [17], in [18] and in [19] was 10 µg/mL throughout.

For `O=C1OC(c2ccc(C(=O)O)cc2)N=C1/C=C/c1ccc(C(=O)c2ccccc2)cc1` (centres undefined), the zone of inhibition at 50 µg/mL in test [1] stood at 23.7 mm; in test [2] it was 17 mm; in test [3], 19.3 mm.

For `Cc1nc2scc(-c3ccco3)c2c(=O)n1/N=C/c1ccc([N+](=O)[O-])cc1`, the MIC in [4] worked out at 11 µg/mL (≈ 28.9 µM); in [5], 11 µg/mL (≈ 28.9 µM); in [6], 12 µg/mL (≈ 31.5 µM); in test [7], 12 µg/mL (≈ 31.5 µM).
